These are literature values, as cited in patent publication US20040019096A1, “Novel formulations of carvedilol” (priority 2003, published 2004).

The conditions of the data set: immediate release formulation.

Take `COc1ccccc1OCCNCC(O)COc1cccc2[nH]c3ccccc3c12` (centres unmarked) [carvedilol]: the “absorption following oral administration” value was “rapidly and extensively absorbed”. Moreover, for the setting “oral administration”, the terminal elimination half-life was 7 to 10 h.
